Results reported in the supplement of paper PMC10307832.

How the values were obtained:
Test in all cases: relative viability (nuclei count vs DMSO), 5 days (fraction); higher = more cells survive
[1] = compound: CC1=C(C(=NN1)C)CC2=C(C3=C(S2)N(C(=O)N(C3=O)C)CC(C)C)C(=O)N4C[C@@H](CO4)O + CC(C)C[C@H](NC(=O)[C@H](Cc1ccccc1)NC(=O)c1cnccn1)B(O)O [Bortezomib] (partner 0.002 µM)
In short: (§1)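 One day after seeding in 1536-well plates, lung cancer cell lines were dosed by pin tool. Dosing was either single-drug or a fixed anchor-drug dose plus five library-drug doses (not always all listed) in √10 steps. After 5 days, nuclei were stained in one fix-and-stain step and counted on 4× images, and relative viability is the nuclei count of treated wells over that of vehicle wells, given as the median of duplicate plates.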

[2] = compound: CC1=C(C(=NN1)C)CC2=C(C3=C(S2)N(C(=O)N(C3=O)C)CC(C)C)C(=O)N4C[C@@H](CO4)O + O=C(c1cc(Cc2n[nH]c(=O)c3ccccc23)ccc1F)N1CCN(C(=O)C2CC2)CC1 [Olaparib] (partner 8 µM)
In short: as §1

[3] = compound: CC1=C(C(=NN1)C)CC2=C(C3=C(S2)N(C(=O)N(C3=O)C)CC(C)C)C(=O)N4C[C@@H](CO4)O + CS(=O)(=O)N1CCN(Cc2cc3nc(-c4cccc5[nH]ncc45)nc(N4CCOCC4)c3s2)CC1 [Pictilisib] (partner 1 µM)
In short: as §1

IDH-C35 + Dasatinib = compound: Cc1ccccc1C(C(=O)NC1CCCCC1)N(C(=O)Cn1ccnc1C)c1cccc(F)c1 [IDH-C35] + Cc1nc(Nc2ncc(C(=O)Nc3c(C)cccc3Cl)s2)cc(N2CCN(CCO)CC2)n1 [Dasatinib] (partner 0.075 µM)
In short: as §1

Row | Cell Line | relative viability ([1]; first compound 0.0025 µM) | relative viability ([1]; first compound 0.007906 µM) | relative viability ([1]; first compound 0.025 µM) | relative viability ([1]; first compound 0.07906 µM) | relative viability ([1]; first compound 0.25 µM) | relative viability ([2]; first compound 0.0025 µM) | relative viability ([2]; first compound 0.007906 µM) | relative viability ([2]; first compound 0.025 µM) | relative viability ([2]; first compound 0.07906 µM) | relative viability ([2]; first compound 0.25 µM) | relative viability ([3]; first compound 0.0025 µM) | relative viability ([3]; first compound 0.007906 µM) | relative viability ([3]; first compound 0.025 µM) | relative viability ([3]; first compound 0.07906 µM) | relative viability ([3]; first compound 0.25 µM) | relative viability (IDH-C35 + Dasatinib; first compound 0.08 µM) | relative viability (IDH-C35 + Dasatinib; first compound 0.253 µM) | relative viability (IDH-C35 + Dasatinib; first compound 0.8 µM) | relative viability (IDH-C35 + Dasatinib; first compound 2.53 µM) | relative viability (IDH-C35 + Dasatinib; first compound 8 µM)
1 | LU99A | 1.37 | 1.21 | 1.07 | 1.14 | 1.2 | 0.224 | 0.262 | 0.246 | 0.193 | 0.229 | 0.351 | 0.314 | 0.331 | 0.345 | 0.327 | 0.684 | 0.552 | 0.586 | 0.639 | 0.542
2 | LXF-289 | 1 | 0.972 | 1 | 1.02 | 1.07 | 1.06 | 1 | 1.07 | 1.03 | 1.25 | 0.862 | 0.82 | 0.779 | 0.804 | 0.826 | 0.276 | 0.25 | 0.252 | 0.221 | 0.214
3 | NCI-H23 | 1.07 | 1.24 | 0.848 | 0.964 | 1.33 | 0.39 | 0.322 | 0.311 | 0.339 | 0.376 | 0.528 | 0.489 | 0.523 | 0.494 | 0.651 | 0.779 | 0.718 | 0.738 | 0.901 | 0.864
4 | NCI-H322M | 1.34 | 1.19 | 1.33 | 1.23 | 1.19 | 0.448 | 0.726 | 0.702 | 0.659 | 0.736 | 0.519 | 0.504 | 0.562 | 0.58 | 0.5 | 0.244 | 0.253 | 0.26 | 0.247 | 0.243
5 | NCI-H441 | 0.822 | 0.34 | 0.626 | 0.636 | 0.707 | 0.648 | 0.529 | 0.521 | 0.478 | 0.593 | 0.575 | 0.446 | 0.431 | 0.616 | 0.656 | 0.629 | 0.753 | 0.536 | 0.673 | 0.541
6 | NCI-H460 | 1.1 | 1.37 | 0.984 | 1.07 | 1.28 | 0.419 | 0.516 | 0.418 | 0.355 | 0.459 | 0.432 | 0.492 | 0.356 | 0.367 | 0.387 | 0.379 | 0.512 | 0.49 | 0.479 | 0.495
7 | NCI-H520 | 0.646 | 0.413 | 0.192 | 0.23 | 0.28 | 0.286 | 0.296 | 0.26 | 0.253 | 0.272 | 0.32 | 0.259 | 0.304 | 0.269 | 0.288 | 0.191 | 0.159 | 0.202 | 0.181 | 0.217
8 | NCI-H596 | 0.997 | 1.11 | 1.05 | 1.15 | 0.98 | 0.765 | 0.743 | 0.73 | 0.696 | 0.635 | 0.387 | 0.369 | 0.387 | 0.431 | 0.593 | 0.588 | 0.759 | 0.693 |  | 0.56
